In brackets after ≈: the same amount, converted by molar mass. Like-named read-outs stand apart in the source and are kept apart here.
Key:
[1] = tested on: T. cruzi epimastigotes; experiment: Trypanocidal activity on T. cruzi epimastigotes (CL-B5 lacZ, CPRG); assay type: cell-based, Trypanosoma cruzi clone CL-B5; conditions: for Selectivity Index L929/ T. cruzi: SI = CC50 L929/IC50 parasites; for IC50: Trypanosoma cruzi, 72 h
Description: For in vitro studies of T. cruzi. the clone CL-B5 was used. Parasites were stably transfected with the Escherichia coli β-galactosidase gene (lacZ), provided by Facultad de Farmacia (Universidad Complutense de Madrid). Epimastigotes were grown at 28 °C in liver infusion tryptose broth (Difco, Detroit, MI, USA) with 10% fetal bovine serum (FBS) (Gibco, Carlsbad, CA, USA), penicillin (Ern S.A., Barcelona, Spain), and streptomycin (Reig Jofré S.A., Barcelona. Spain), as described previously, and harvested during the exponential growth phase. Briefly, the screening assay was performed in 96-well microplates (Sarstedt, Inc., Newton, NC, USA) with cultures that had not reached the stationary phase. Briefly, epimastigotes were seeded at 2 × 10^5 parasites/mL in 200 µL growth media. The plates were then incubated with the respective compounds at 28 °C for 72 h. Afterwards, 50 µL of CPRG solution was added, resulting in a final concentration of 200 µM. The plates were incubated at 37 °C for an additional 4 h and then read at 595 nm. Each concentration was tested in triplicate. […] These values were calculated from the sigmoidal dose–response curve adjustment using the statistical software program Graph-Pad Prims 3.0. Benznidazole was used as a reference drug.

[2] = Cytotoxicity on L929 fibroblasts (resazurin); conditions: mouse
[3] = tested on: M. tuberculosis CIPTIR -D152; experiment: MIC broth microdilution; assay type: cell-based; conditions: Mycobacterium tuberculosis
[4] = tested on: M. tuberculosis CIPTIR-F296; experiment: MIC broth microdilution; assay type: cell-based; conditions: Mycobacterium tuberculosis, CIPTIRF296
[5] = tested on: M. tuberculosis ATCC H37Rv; experiment: MIC broth microdilution; assay type: cell-based; conditions: Mycobacterium tuberculosis, H37RV
[6] = tested on: M. abscessus LIID-01; experiment: MIC broth microdilution; assay type: cell-based; conditions: Mycobacteroides abscessus, LIID01, 72 h
[7] = tested on: M. abscessus LIID-02; experiment: MIC broth microdilution; assay type: cell-based; conditions: Mycobacteroides abscessus, LIID02, 72 h
[8] = tested on: M. abscessus LIID-03; experiment: MIC broth microdilution; assay type: cell-based; conditions: Mycobacteroides abscessus, LIID03, 72 h
[9] = tested on: M. fortuitum LIID-01; experiment: MIC broth microdilution; assay type: cell-based; conditions: Mycolicibacterium fortuitum, LIID01, 72 h
[10] = tested on: M. intracellulare LIID-01; experiment: MIC broth microdilution; assay type: cell-based; conditions: Mycobacterium intracellulare, LIID01
[11] = tested on: M. intracellulare LIID-02; experiment: MIC broth microdilution; assay type: cell-based; conditions: Mycobacterium intracellulare, LIID02
[12] = tested on: E. coli (G−); experiment: MIC broth microdilution; assay type: cell-based; conditions: Escherichia coli, 24 h
[13] = tested on: P. aeruginosa (G−); experiment: MIC broth microdilution; assay type: cell-based; conditions: Pseudomonas aeruginosa, 24 h
[14] = tested on: S. typhi (G−); experiment: MIC broth microdilution; assay type: cell-based; conditions: Salmonella enterica, 24 h
[15] = tested on: S. aureus (G+); experiment: MIC broth microdilution; assay type: cell-based; conditions: Staphylococcus aureus, 24 h
[16] = tested on: L. innocua (G+); experiment: MIC broth microdilution; assay type: cell-based; conditions: Listeria innocua, 24 h
[17] = tested on: L. monocytogenes (G+); experiment: MIC broth microdilution; assay type: cell-based; conditions: Listeria monocytogenes, 24 h
[18] = tested on: E. faecalis (G+); experiment: MIC broth microdilution; assay type: cell-based; conditions: Enterococcus faecalis, 24 h
[19] = tested on: B. cereus (G+); experiment: MIC broth microdilution; assay type: cell-based; conditions: Bacillus cereus, 24 h
[20] = tested on: M. luteus (G+); experiment: MIC broth microdilution; assay type: cell-based; conditions: Micrococcus luteus, 24 h
[21] = tested on: Leishmania infantum (L. i) promastigotes; experiment: Leishmanicidal activity on L. infantum promastigotes (resazurin); conditions: for IC50: Leishmania infantum, 48 h, read-out: Leishmanicidal Activity IC50—L. i; for Selectivity Index L929/ L. i: SI = CC50 L929/IC50 parasites
Description: (§1) The culture of L. braziliensis (MHOM/CO/88/UA301) and L. infantum (MCAN/ES/92/BCN83) was obtained from the Facultad de Farmacia, Universidad Complutense de Madrid, Spain.
(§2) The maintenance of the strains, the form of cultivation, and the isolation of shape promastigota followed the procedures described by Roldós et al. [8]. The promastigotes were grown at 22 °C in Schneider’s Drosophila medium supplemented with 20% FBS. The assay was performed using a modification of a previous method [47]. Promastigotes (2 × 10^6 parasites/well) were cultured in 96-well plastic plates. Compounds were dissolved in dimethylsulfoxide (DMSO). Different dilutions of the compounds up to a 200 µL final volume were added. After 48 h at 26 °C, 20 µL of 2 mM resazurin solution was added and the oxidation–reduction was quantified at 570 and 600 nm. The solution of resazurin was prepared at 2.5 mM in phosphate-buffered solution (PBS), pH 7.4, and filtered through 0.22 µM prior to use. All tests were carried out in triplicate. Resazurin sodium salt was obtained from Sigma–Aldrich (St. Louis, MO, USA) and stored at 4 °C protected from light. The efficacy of each compound was estimated by calculating the IC50 values.

[22] = tested on: Leishmania brazilensis (L. b) promastigotes; experiment: Leishmanicidal activity on L. braziliensis promastigotes (resazurin); conditions: for IC50: Leishmania, 48 h, read-out: Leishmanicidal Activity IC50—L. b; for Selectivity Index L929/ L. b: SI = CC50 L929/IC50 parasites
Description: as §1, §2

[23] = epimastigotes, read-out: Trypanocidal Activity IC50 T. cruzi

| SMILES | Selectivity Index L929/ T. cruzi [1] | IC50 [1, 23] [µM] | CC50 at 24 h [2] [µM] | IC50 [21] [µM] | IC50 [22] [µM] | other results |
| --- | --- | --- | --- | --- | --- | --- |
| O=C(Cn1ccnc1[N+](=O)[O-])NCc1ccccc1 [Benznidazole, reference compound] | 14.0 | 54.7 | 769 |  |  |  |
| C#CCCC(=O)Oc1c2c(c3ccccc3c1OC(=O)CCC#C)OC(C)(C)C=C2 [Compound 1a] | 6 | 19.2 | 106 | 24.9 | 10.7 | MIC [3]: > 200 µg/mL; MIC [4]: > 200 µg/mL; MIC [5]: > 200 µg/mL; MIC [6]: > 200 µg/mL; MIC [7]: > 200 µg/mL; MIC [8]: > 200 µg/mL; MIC [9]: > 200 µg/mL; MIC [10]: 50 µg/mL (≈ 124 µM); MIC [11]: > 200 µg/mL; MIC [12]: > 200 µg/mL; MIC [13]: > 200 µg/mL; MIC [14]: > 200 µg/mL; MIC [15]: 100 µg/mL (≈ 248 µM); MIC [16]: > 200 µg/mL; MIC [17]: > 200 µg/mL; MIC [18]: > 200 µg/mL; MIC [19]: > 200 µg/mL; MIC [20]: > 200 µg/mL; Selectivity Index L929/ L. i [21]: 4; Selectivity Index L929/ L. b [22]: 10 |
| C#CCCCC(=O)Oc1c2c(c3ccccc3c1OC(=O)CCCC#C)OC(C)(C)C=C2 [Compound 1b] | 3 | 37.3 | 128 | 30.5 | 6.7 | Selectivity Index L929/ L. i [21]: 4; Selectivity Index L929/ L. b [22]: 19 |
| CC1(C)C=Cc2c(OC(=O)CCc3cn(-c4ccccc4)nn3)c(OC(=O)CCc3cn(-c4ccccc4)nn3)c3ccccc3c2O1 [Compound 2a] | >4 | 68.7 | > 256 | > 256 | > 256 |  |
| COc1ccc(-n2cc(CCC(=O)Oc3c4c(c5ccccc5c3OC(=O)CCc3cn(-c5ccc(OC)cc5)nn3)OC(C)(C)C=C4)nn2)cc1 [Compound 2b] | >1 | 204 | > 256 | > 256 | > 256 |  |
| CC1(C)C=Cc2c(OC(=O)CCc3cn(-c4ccc(Cl)cc4)nn3)c(OC(=O)CCc3cn(-c4ccc(Cl)cc4)nn3)c3ccccc3c2O1 [Compound 2c] |  | > 256 | > 256 | > 256 | > 256 |  |
| Cc1ccc(-n2cc(CCC(=O)Oc3c4c(c5ccccc5c3OC(=O)CCc3cn(-c5ccc(C)cc5)nn3)OC(C)(C)C=C4)nn2)cc1 [Compound 2d] |  | > 256 | > 256 | > 256 | > 256 |  |
| CC(=O)O[C@@H]1[C@@H](OC(C)=O)[C@H](OC(C)=O)CO[C@H]1n1cc(CCC(=O)Oc2c3c(c4ccccc4c2OC(=O)CCc2cn([C@@H]4OC[C@@H](OC(C)=O)[C@H](OC(C)=O)[C@H]4OC(C)=O)nn2)OC(C)(C)C=C3)nn1 [Compound 2e] |  | > 256 | > 256 | > 256 | > 256 |  |
| CC1(C)C=Cc2c(OC(=O)CCc3cn(-c4cccc(Cl)c4)nn3)c(OC(=O)CCc3cn(-c4cccc(Cl)c4)nn3)c3ccccc3c2O1 [Compound 2g] |  |  | > 384 | > 256 | > 256 | IC50 ([1]; read-out: Trypanocidal Activity IC50 T. cruzi, epimastigotes, 72 h): > 256 µM |
| CC1(C)C=Cc2c(OC(=O)CCc3cn(Cc4ccc([N+](=O)[O-])cc4)nn3)c(OC(=O)CCc3cn(Cc4ccc([N+](=O)[O-])cc4)nn3)c3ccccc3c2O1 [Compound 2h] |  | > 256 | > 256 | > 256 | > 256 |  |
| CC1(C)C=Cc2c(OC(=O)CCc3cn(Cc4ccc(Br)cc4)nn3)c(OC(=O)CCc3cn(Cc4ccc(Br)cc4)nn3)c3ccccc3c2O1 [Compound 2i] |  | > 256 | > 256 | > 256 | > 256 |  |

Reference: PMC11510191, “Exploring Benzo[h]chromene Derivatives as Agents against Protozoal and Mycobacterial Infections” (Pharmaceuticals, 2024)
